# How the values were obtained:
# [1] = Pharmacokinetic behaviour of DHT (patch) in combination with estriol gel, transdermal, 18 healthy young male test persons; details: human, in vivo, topical or ocular
# Experimental: Pharmacokinetic Behaviour of Dihydrotestosterone (DHT) in Combination with Estriol Gel
# In a randomized study, the pharmacokinetic behaviour of DHT and estriol after transdermal application was examined in 18 healthy young male test persons.
# The DHT patch contains 150 mg of the active ingredient and was left on the test persons' skin for 24 hours. This galenic form releases 6 mg of DHT per day.
# The estriol gel contains 5 mg of active ingredient in 0.5 g of gel. This gel formulation was applied one time to 150 cm^2 of skin (forearm).
# For analysis, 12 blood samples were taken from each test person after the application over a period of 48 hours.
# [2] = 5α-dihydrotestosterone vs testosterone; cited from earlier work
# [3] = tested on: endogenic testosterone production; details: cited from earlier work; for inhibition of endogenic testosterone production: Oettel 1993
# [4] = Pharmacokinetic behaviour of mesterolone in combination with estradiol valerate, single oral application, 24 healthy young male test persons; details: human, in vivo
# Experimental: Pharmacokinetic Behaviour of Mesterolone in Combination with Estradiol Valerate (EV)
# In a randomized study, the kinetic behaviour of mesterolone (25 mg tablet) in combination with EV (1 mg lozenge) after a single oral application was examined in 24 healthy young male test persons.
# Each test person was administered mesterolone and EV after a monitored fasting period of 12 hours. After the application, 18 blood samples were taken from each test person over a period of 60 hours.
# [5] = tested on: cholesterol, lipoprotein and lipase levels; details: testosterone esters; cited from earlier work
# [6] = Clinical study in hypogonadal men: serum hormone levels
# hypogonadal men = experiment: Clinical study in 23 hypogonadal men: clinical findings (efficacy and side effects)
# [7] = cited from earlier work
# [8] = mesterolone 25 mg tablet + EV 1 mg lozenge, single oral
compound,measurement,setting,value
"C[C@]12CCC(=O)C[C@@H]1CC[C@@H]1[C@@H]2CC[C@]2(C)[C@@H](O)CC[C@@H]12 [DHT, 5α-dihydrotestosterone]",Cmax,[1]; 150 mg,4.51 ± 1.23 ng/mL
same,activity relative to testosterone,[2],about twice as active as testosterone
same,inhibition of endogenic testosterone production,[3],not been observed
"C[C@]12CC[C@@H]3c4ccc(O)cc4CC[C@H]3[C@@H]1CC[C@@H]2O [estradiol, 17β-estradiol]",inhibition of endogenic testosterone production,[3],not been observed
C[C@]12CC[C@@H]3c4ccc(O)cc4CC[C@H]3[C@@H]1C[C@@H](O)[C@@H]2O [estriol],Cmax,[1]; 5 mg,0.00882 ± 0.00254 ng/mL
C[C@H]1CC(=O)C[C@@H]2CC[C@H]3[C@@H]4CC[C@H](O)[C@@]4(C)CC[C@@H]3[C@]21C [mesterolone],concentration at 60 h,[4]; 60 h after single oral mesterolone 25 mg + EV 1 mg,0.48 ng/mL
same,Cmax,[4]; [8],6.9 ng/mL
same,Tmax,[4]; [8],8.9 h
same,half-life,[4]; [8],792 min
same,AUC at 60 h,"[4]; mesterolone 25 mg tablet + EV 1 mg lozenge, single oral, 60 h",177 ng·h/mL
same,inhibition of endogenic testosterone production,[3],not been observed
CCCCCCC(=O)O[C@H]1CC[C@H]2[C@@H]3CCC4=CC(=O)CC[C@]4(C)[C@H]3CC[C@]12C [testosterone enanthate],period of reversible inhibition of endogenic testosterone production,[3]; patients with working gonadal testosterone biosynthesis (Humpel and Oettel 1994),about 2 weeks
same,effect on HDL cholesterol,[5],can cause a minor suppression
same,effect on total and LDL cholesterol levels,[5],only have a minor effect
same,LH levels in the serum / LH synthesis,[6]; 12 months,reduced in the serum of all participants
same,maximum values compared with testosterone levels in healthy men,"[6]; Arm 1, 250 mg i.m.",significant increase
same,cumulation,"[6]; Arm 1, testosterone, subsequent applications",no cumulation
same,gynaecomastia,hypogonadal men; 12 months,Five out of 12
same,increase in the size of the prostatic glands / prostatic hyperplasia,hypogonadal men; 12 months,could not be detected
same,pelage increase,hypogonadal men; 12 months,All men experienced a pelage increase
same,"prostate-specific antigen (PSA), change",hypogonadal men; 12 months,slightly up in all patients
same,volume/weight of testicles,hypogonadal men; 12 months,the volume of their testicles got smaller
same,Collagen depletion,hypogonadal men; Arm 1,not detected
same,"thickening of the skin, increase in water retention, tension and elasticity of the tissue",hypogonadal men; Arm 1,"All participants in the study showed a thickening of the skin, an increase in water retention, and an improvement of the tension and elasticity of the tissue"
same,improvement of the morning erection,"hypogonadal men; Arm 1, 12 months",Nine out of 12
same,patients free of complaints,"hypogonadal men; Arm 1, n=12",Nine
same,increased susceptibility to acne / development of acne,"hypogonadal men; Arm 1 after 4 months of treatment, Arm 2 12 months",Seven of the 12
same,voice pitch / voice change,"hypogonadal men; Arm 1 after 4 months, Arm 2 12 months",voice pitch of all men lowered towards a bass tone
same,increase in penis size,"hypogonadal men; Arm 1 n=12, Arm 2 n=11, 12 months",11 men/patients
same,bone density,hypogonadal men; after 6 months of treatment,All patients showed an apparent increase in bone density
same,symptoms of andropause,"hypogonadal men; hot flashing, exhaustion, weakness of concentration, reduced efficiency, disgruntlement, disturbances of libido and potency",became less frequent
C[C@]12CC[C@H]3[C@@H](CCC4=CC(=O)CC[C@@]43C)[C@@H]1CC[C@@H]2O [testosterone],estradiol levels in the plasma,[7]; intramuscular injection (Tenover 1992),doubled
same,increase of estradiol levels in the plasma,[7]; percutaneous application (Kuhn 1986),70%
